Consider 21 compounds from ChEMBL document CHEMBL1133236, “Synthesis and antifungal activities of 5/6-arylamino-4,7-dioxobenzothiazoles” (Bioorg Med Chem Lett, 2000).

≈ marks a conversion by molar mass, not a printed value. Some results are limits rather than exact numbers.

One test relates to HepG2. Nature of the test: In vitro cytotoxicity against HepG2 cells (Hepatocarcinoma from ATCC) by MTT assay. The test is classed as functional, cell-based, Homo sapiens. A general note: Tetrazolium assays rely on reduction of a dye to a coloured formazan, in cell work by metabolically active cells.
Another test concerns Candida albicans. The test is described as follows: Antifungal activity against Candida albicans ATCC 10231. The class given is functional.
The next test relates to Pichia kudriavzevii. The test is described as follows: Antifungal activity against Candida krusei ATCC 749. The test is classed as functional.
A further test relates to Candida tropicalis. Nature of the test: Antifungal activity against Candida tropicalis ATCC 28775. The test is classed as functional.
Another test relates to Aspergillus niger. Nature of the test: Antifungal activity against Aspergillus niger KCTC 1231. The class given is functional.
The mark [1] stands for this setting: Homo sapiens, HepG2, read-out: IC50.

With `O=C1C=C(Nc2cccc(F)c2)C(=O)c2scnc21`, the IC50 (commonly the midpoint of a concentration-inhibition curve) in the test with HepG2 (setting [1]) was greater than 100 µg/mL. The MIC – broadly, the smallest concentration in the dilution series that meets the test's criterion for growth inhibition – against Candida albicans amounted to 12.5 µg/mL (≈ 45.6 µM); in the test with Pichia kudriavzevii, 3.2 µg/mL (≈ 11.7 µM); with Candida tropicalis, 12.5 µg/mL (≈ 45.6 µM); against Aspergillus niger it was 1.6 µg/mL (≈ 5.83 µM).

With CISPLATIN, the IC50 with HepG2 (hepg2) was determined as 0.33 µg/mL.

For `Cc1nc2c(s1)C(=O)C=C(Nc1ccc(F)cc1)C2=O`, the IC50 in the test on HepG2 (setting [1]) was found to be 1.6 µg/mL (≈ 5.55 µM). Also, the MIC in the test with Candida albicans is 3.2 µg/mL (≈ 11.1 µM); in the test on Pichia kudriavzevii, 3.2 µg/mL (≈ 11.1 µM); in the test on Candida tropicalis it was 6.3 µg/mL (≈ 21.9 µM); in the test on Aspergillus niger, 3.2 µg/mL (≈ 11.1 µM).

Regarding `Cc1nc2c(s1)C(=O)C=C(Nc1cccc(Br)c1)C2=O`, in the test on HepG2 (setting [1]), the IC50 was 15 µg/mL (≈ 43 µM). Also, the MIC against Candida albicans was 12.5 µg/mL (≈ 35.8 µM); with Pichia kudriavzevii, 6.3 µg/mL (≈ 18 µM); in the test with Candida tropicalis, 0.8 µg/mL (≈ 2.29 µM); against Aspergillus niger, 12.5 µg/mL (≈ 35.8 µM).

Turning to `CCOc1ccc(NC2=CC(=O)c3sc(C)nc3C2=O)cc1`, the IC50 in the test on HepG2 (setting [1]) was 4.9 µg/mL (≈ 15.6 µM). Further, the MIC was 3.2 µg/mL (≈ 10.2 µM) against Candida albicans, 3.2 µg/mL (≈ 10.2 µM) in the test on Pichia kudriavzevii, 6.3 µg/mL (≈ 20 µM) with Candida tropicalis and 1.6 µg/mL (≈ 5.09 µM) in the test with Aspergillus niger.

`COC1=CC(=O)c2ncsc2C1=O`: the MIC was 50 µg/mL (≈ 256 µM) against Candida albicans, 12.5 µg/mL (≈ 64 µM) in the test with Pichia kudriavzevii, 25 µg/mL (≈ 128 µM) in the test on Candida tropicalis and 25 µg/mL (≈ 128 µM) against Aspergillus niger.

Turning to `O=C1C=C(Nc2ccccc2)C(=O)c2scnc21`, the IC50 in the test with HepG2 (setting [1]) is 14.7 µg/mL (≈ 57.4 µM). Moreover, the MIC against Candida albicans was found to be 12.5 µg/mL (≈ 48.8 µM); with Pichia kudriavzevii, 6.3 µg/mL (≈ 24.6 µM); against Candida tropicalis, 6.3 µg/mL (≈ 24.6 µM); against Aspergillus niger it was 3.2 µg/mL (≈ 12.5 µM).

`O=C1C=C(Nc2ccc(OC(F)(F)F)cc2)C(=O)c2scnc21`: the IC50 in the test on HepG2 (setting [1]) is greater than 100 µg/mL. Besides, the MIC amounted to 12.5 µg/mL (≈ 36.7 µM) against Candida albicans, 3.2 µg/mL (≈ 9.4 µM) with Pichia kudriavzevii, 12.5 µg/mL (≈ 36.7 µM) in the test with Candida tropicalis and 3.2 µg/mL (≈ 9.4 µM) in the test with Aspergillus niger.

On to `CCCCCCc1ccc(NC2=CC(=O)c3sc(C)nc3C2=O)cc1`, for which the IC50 with HepG2 (setting [1]) is 22 µg/mL (≈ 62.1 µM). For the same compound, the MIC against Candida albicans came out at 12.5 µg/mL (≈ 35.3 µM); against Pichia kudriavzevii, 12.5 µg/mL (≈ 35.3 µM); against Candida tropicalis, 6.3 µg/mL (≈ 17.8 µM); in the test on Aspergillus niger it was 12.5 µg/mL (≈ 35.3 µM).

With `Cc1nc2c(s1)C(=O)C=C(Nc1ccc(Cl)cc1)C2=O`, the IC50 in the test with HepG2 (setting [1]) worked out at 3.4 µg/mL (≈ 11.2 µM). In addition, the MIC came out at 12.5 µg/mL (≈ 41 µM) against Candida albicans, 25 µg/mL (≈ 82 µM) against Pichia kudriavzevii, 25 µg/mL (≈ 82 µM) in the test with Candida tropicalis and 6.3 µg/mL (≈ 20.7 µM) against Aspergillus niger.

With `O=C1C=C(Nc2ccc(Cl)cc2)C(=O)c2scnc21`, in the test on HepG2 (setting [1]), the IC50 was 16.4 µg/mL (≈ 56.4 µM). Moreover, the MIC was 12.5 µg/mL (≈ 43 µM) against Candida albicans, 25 µg/mL (≈ 86 µM) in the test on Pichia kudriavzevii, 12.5 µg/mL (≈ 43 µM) in the test with Candida tropicalis and 12.5 µg/mL (≈ 43 µM) against Aspergillus niger.

`Cc1ccc(NC2=CC(=O)c3sc(C)nc3C2=O)cc1`: in the test on HepG2 (setting [1]), the IC50 turned out to be 1.2 µg/mL (≈ 4.22 µM). The MIC in the test with Candida albicans was determined as 6.3 µg/mL (≈ 22.2 µM); with Pichia kudriavzevii, 1.6 µg/mL (≈ 5.63 µM); against Candida tropicalis it was 1.6 µg/mL (≈ 5.63 µM); against Aspergillus niger, 12.5 µg/mL (≈ 44 µM).

Regarding `Cc1nc2c(s1)C(=O)C=C(Nc1ccc(C(F)(F)F)cc1)C2=O`, in the test on HepG2 (setting [1]), the IC50 is greater than 100 µg/mL. Further, the MIC against Candida albicans came to 12.5 µg/mL (≈ 36.9 µM); against Pichia kudriavzevii it was 3.2 µg/mL (≈ 9.46 µM); against Candida tropicalis it was 12.5 µg/mL (≈ 36.9 µM); with Aspergillus niger, 6.3 µg/mL (≈ 18.6 µM).

In the case of `Cc1nc2c(s1)C(=O)C=C(Nc1ccc(C)c(C)c1)C2=O`, in the test on HepG2 (setting [1]), the IC50 was determined as 4.8 µg/mL (≈ 16.1 µM). In addition, the MIC against Candida albicans was determined as 12.5 µg/mL (≈ 41.9 µM); against Pichia kudriavzevii it was 3.2 µg/mL (≈ 10.7 µM); against Candida tropicalis, 0.4 µg/mL (≈ 1.34 µM); against Aspergillus niger it was 12.5 µg/mL (≈ 41.9 µM).

As to `Cc1nc2c(s1)C(=O)C=C(Nc1ccc(OC(F)(F)F)cc1)C2=O`, in the test on HepG2 (setting [1]), the IC50 is greater than 100 µg/mL. Moreover, the MIC against Candida albicans is 12.5 µg/mL (≈ 35.3 µM); with Pichia kudriavzevii, 25 µg/mL (≈ 70.6 µM); with Candida tropicalis, 0.8 µg/mL (≈ 2.26 µM); with Aspergillus niger, 6.3 µg/mL (≈ 17.8 µM).

On to `Nc1nc(=O)[nH]cc1F` [FLUCYTOSINE], for which the MIC against Candida albicans was 3.2 µg/mL (≈ 24.8 µM); in the test on Pichia kudriavzevii, 3.2 µg/mL (≈ 24.8 µM); against Candida tropicalis, 50 µg/mL (≈ 387 µM); in the test with Aspergillus niger, 1.6 µg/mL (≈ 12.4 µM).

Turning to `Cc1nc2c(s1)C(=O)C=C(Nc1ccccc1)C2=O`, the IC50 in the test on HepG2 (setting [1]) was found to be 1.5 µg/mL (≈ 5.55 µM). Moreover, the MIC against Candida albicans is 6.3 µg/mL (≈ 23.3 µM); in the test on Pichia kudriavzevii it was 0.4 µg/mL (≈ 1.48 µM); in the test with Candida tropicalis it was 1.6 µg/mL (≈ 5.92 µM); in the test on Aspergillus niger, 12.5 µg/mL (≈ 46.2 µM).

Regarding `COC1=CC(=O)c2sc(C)nc2C1=O`, the MIC against Candida albicans turned out to be 25 µg/mL (≈ 119 µM); in the test with Pichia kudriavzevii it was 50 µg/mL (≈ 239 µM); against Candida tropicalis it was 25 µg/mL (≈ 119 µM); against Aspergillus niger it was 12.5 µg/mL (≈ 59.7 µM).

Turning to `O=C1C=C(Nc2ccc(F)cc2)C(=O)c2scnc21`, the IC50 in the test on HepG2 (setting [1]) turned out to be 17.9 µg/mL (≈ 65.3 µM). For the same compound, the MIC is 12.5 µg/mL (≈ 45.6 µM) in the test with Candida albicans, 3.2 µg/mL (≈ 11.7 µM) in the test with Pichia kudriavzevii, 6.3 µg/mL (≈ 23 µM) in the test on Candida tropicalis and 3.2 µg/mL (≈ 11.7 µM) with Aspergillus niger.

Take `Cc1nc2c(s1)C(=O)C=C(Nc1cccc(Cl)c1)C2=O`: the IC50 in the test with HepG2 (setting [1]) was 5.7 µg/mL (≈ 18.7 µM). The MIC in the test with Candida albicans came out at 12.5 µg/mL (≈ 41 µM); against Pichia kudriavzevii, 6.3 µg/mL (≈ 20.7 µM); against Candida tropicalis, 6.3 µg/mL (≈ 20.7 µM); in the test with Aspergillus niger, 12.5 µg/mL (≈ 41 µM).

Turning to `CCOc1ccc(NC2=CC(=O)c3ncsc3C2=O)cc1`, the IC50 in the test on HepG2 (setting [1]) was found to be 23.6 µg/mL (≈ 78.6 µM). For the same compound, the minimal inhibitory concentration (MIC) came out at 12.5 µg/mL (≈ 41.6 µM) against Candida albicans, 6.3 µg/mL (≈ 21 µM) against Pichia kudriavzevii, 12.5 µg/mL (≈ 41.6 µM) with Candida tropicalis and 3.2 µg/mL (≈ 10.7 µM) against Aspergillus niger.
